Results reported in PubChem BioAssay AID2060512 (Molecular Pharmacology Branch, DTP, NCI, 2025).

System: 186277-243-T-J2-PDC complex spheroid viability
Assay: Anticancer human tumor 186277-243-T-J2-PDC patient-derived colon adenocarcinoma cell line growth inhibition [GQUAD]
Details: for IC50: curve of first compound; for viability, T/C: stronger effect = lower value
How it was run: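 Tumor cells were grown as complex spheroids with HUVEC endothelial cells and mesenchymal stem cells as stroma. G-quadruplex stabilizers were combined with targeted agents over half-log dilutions from near the clinical Cmax, or from 10 microM.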

[1] = second compound 0.0316 µM, first compound 0.0316 µM
[2] = second compound 0.0316 µM, first compound 0.1 µM
[3] = second compound 0.0316 µM, first compound 0.316 µM
[4] = second compound 0.0316 µM, first compound 1 µM
[5] = second compound 0.0316 µM, first compound 3.16 µM
[6] = second compound 0.0316 µM, first compound 10 µM
[7] = second compound 0.1 µM, first compound 0.0316 µM
[8] = second compound 0.1 µM, first compound 0.1 µM
[9] = second compound 0.1 µM, first compound 0.316 µM
[10] = second compound 0.1 µM, first compound 1 µM
[11] = second compound 0.1 µM, first compound 3.16 µM
[12] = second compound 0.1 µM, first compound 10 µM
[13] = second compound 0.316 µM, first compound 0.0316 µM
[14] = second compound 0.316 µM, first compound 0.1 µM
[15] = second compound 0.316 µM, first compound 0.316 µM
[16] = second compound 0.316 µM, first compound 1 µM
[17] = second compound 0.316 µM, first compound 3.16 µM
[18] = second compound 0.316 µM, first compound 10 µM
[19] = second compound 1 µM, first compound 0.0316 µM
[20] = second compound 1 µM, first compound 0.1 µM
[21] = second compound 1 µM, first compound 0.316 µM
[22] = second compound 1 µM, first compound 1 µM
[23] = second compound 1 µM, first compound 3.16 µM
[24] = second compound 1 µM, first compound 10 µM
[25] = second compound 3.16 µM, first compound 0.0316 µM
[26] = second compound 3.16 µM, first compound 0.1 µM
[27] = second compound 3.16 µM, first compound 0.316 µM
[28] = second compound 3.16 µM, first compound 1 µM
[29] = second compound 3.16 µM, first compound 3.16 µM
[30] = second compound 3.16 µM, first compound 10 µM
[31] = second compound 10 µM, first compound 0.0316 µM
[32] = second compound 10 µM, first compound 0.1 µM
[33] = second compound 10 µM, first compound 0.316 µM
[34] = second compound 10 µM, first compound 1 µM
[35] = second compound 10 µM, first compound 3.16 µM
[36] = second compound 10 µM, first compound 10 µM
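Also: spheroids exposed to drugs for 7 days.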
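For viability, T/C in this document: 100% = DMSO vehicle control viability.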

Structure (SMILES): Cc1cccc(N(C)C(=O)C2C(O)CCN2c2nc(C)cc(C(F)(F)F)c2C#N)c1 (centres undefined) + CN(C)c1ccc(Nc2c3ccc(NC(=O)CCN4CCCC4)cc3nc3cc(NC(=O)CCN4CCCC4)ccc23)cc1
- IC50 (second compound 0.0316 µM): > 10 µM
- IC50 (second compound 0.1 µM): > 10 µM
- IC50 (second compound 0.316 µM): > 10 µM
- IC50 (second compound 1 µM): > 10 µM
- IC50 (second compound 3.16 µM): > 10 µM
- IC50 (second compound 10 µM): > 10 µM
- viability, T/C [1]: 88.8%
- viability, T/C [2]: 99.5%
- viability, T/C [3]: 115%
- viability, T/C [4]: 109%
- viability, T/C [5]: 105%
- viability, T/C [6]: 100%
- viability, T/C [7]: 94.1%
- viability, T/C [8]: 105%
- viability, T/C [9]: 94.9%
- viability, T/C [10]: 91.8%
- viability, T/C [11]: 108%
- viability, T/C [12]: 88.7%
- viability, T/C [13]: 81%
- viability, T/C [14]: 107%
- viability, T/C [15]: 98.9%
- viability, T/C [16]: 97.6%
- viability, T/C [17]: 102%
- viability, T/C [18]: 104%
- viability, T/C [19]: 97.1%
- viability, T/C [20]: 93.2%
- viability, T/C [21]: 98.9%
- viability, T/C [22]: 101%
- viability, T/C [23]: 102%
- viability, T/C [24]: 114%
- viability, T/C [25]: 86.4%
- viability, T/C [26]: 91.7%
- viability, T/C [27]: 106%
- viability, T/C [28]: 118%
- viability, T/C [29]: 83%
- viability, T/C [30]: 110%
- viability, T/C [31]: 88.6%
- viability, T/C [32]: 104%
- viability, T/C [33]: 93.7%
- viability, T/C [34]: 120%
- viability, T/C [35]: 98.2%
- viability, T/C [36]: 75.6%

Structure (SMILES): Nc1ccn(C2OC(CO)C(O)C2(F)F)c(=O)n1 (centres undefined) + Cc1[nH]c2ccc(F)cc2c1-c1nc2c3cccnc3c3ncccc3c2[nH]1
- IC50 (second compound 0.0316 µM): < 0.0316 µM
- IC50 (second compound 0.1 µM): < 0.0316 µM
- IC50 (second compound 0.316 µM): < 0.0316 µM
- IC50 (second compound 1 µM): < 0.0316 µM
- IC50 (second compound 3.16 µM): < 0.0316 µM
- IC50 (second compound 10 µM): < 0.0316 µM
- viability, T/C [1]: 21.6%
- viability, T/C [2]: 11.7%
- viability, T/C [3]: 11.9%
- viability, T/C [4]: 10.3%
- viability, T/C [5]: 11.4%
- viability, T/C [6]: 11.4%
- viability, T/C [7]: 22.8%
- viability, T/C [8]: 11.5%
- viability, T/C [9]: 11.6%
- viability, T/C [10]: 9.19%
- viability, T/C [11]: 12.4%
- viability, T/C [12]: 11.5%
- viability, T/C [13]: 23.7%
- viability, T/C [14]: 10.1%
- viability, T/C [15]: 11.9%
- viability, T/C [16]: 10.4%
- viability, T/C [17]: 12.4%
- viability, T/C [18]: 11.6%
- viability, T/C [19]: 18.9%
- viability, T/C [20]: 10.6%
- viability, T/C [21]: 11.8%
- viability, T/C [22]: 10.4%
- viability, T/C [23]: 11.7%
- viability, T/C [24]: 12.1%
- viability, T/C [25]: 23.4%
- viability, T/C [26]: 15.5%
- viability, T/C [27]: 11.9%
- viability, T/C [28]: 11.3%
- viability, T/C [29]: 9.87%
- viability, T/C [30]: 12.2%
- viability, T/C [31]: 20.2%
- viability, T/C [32]: 8.63%
- viability, T/C [33]: 9.73%
- viability, T/C [34]: 9.38%
- viability, T/C [35]: 11.6%
- viability, T/C [36]: 12.2%
